Like-named read-outs stand apart in the source and are kept apart here. Where a SMILES comes first, the peptide text is derived from it. Bridges are numbered along the chain shown (N, C = ends).
Assays:
hNaV1.1 = hNaV1.1 (Homo sapiens, UniProt P35498); experiment: Two-electrode voltage-clamp on Xenopus laevis oocytes expressing NaV1.1
rNaV1.7 = rNaV1.7 (Rattus norvegicus, UniProt O08562); experiment: Two-electrode voltage-clamp on Xenopus laevis oocytes expressing NaV1.7
rNaV1.8 = rNaV1.8 (Rattus norvegicus, UniProt Q62968); experiment: Two-electrode voltage-clamp on Xenopus laevis oocytes expressing NaV1.8; conditions: for inhibition at 100 µM: read-out: Maximum % inhibition NaV1.8
mNaV1.6 = mNaV1.6 (Mus musculus, UniProt Q9WTU3); experiment: Two-electrode voltage-clamp on Xenopus laevis oocytes expressing NaV1.6; conditions: for inhibition at 100 µM: read-out: Maximum % inhibition NaV1.6, peptide at 100 μM
hNaV1.5 = hNaV1.5 (Homo sapiens, UniProt Q14524); experiment: Two-electrode voltage-clamp on Xenopus laevis oocytes expressing NaV1.5; conditions: for inhibition at 100 µM: read-out: Maximum % inhibition NaV1.5
rNaV1.4 = rNaV1.4 (Rattus norvegicus, UniProt P15390); experiment: Two-electrode voltage-clamp on Xenopus laevis oocytes expressing NaV1.4; conditions: for inhibition at 100 µM: read-out: Maximum % inhibition NaV1.4, peptide at 100 μM
rNaV1.2 = rNaV1.2 (Rattus norvegicus, UniProt P04775); experiment: Two-electrode voltage-clamp on Xenopus laevis oocytes expressing NaV1.2; conditions: for inhibition at 100 µM: read-out: Maximum % inhibition NaV1.2, peptide at 100 μM
rNaV1.3 = rNaV1.3 (Rattus norvegicus, UniProt P08104); experiment: Two-electrode voltage-clamp on Xenopus laevis oocytes expressing NaV1.3
[1] = system: NaV1.2, NaV1.4, NaV1.5 and NaV1.6; conditions: 100 μM
inflammatory pain models = conditions: in vivo; cited from earlier work

Chain of rNaV1.3 (P08104 whole entry): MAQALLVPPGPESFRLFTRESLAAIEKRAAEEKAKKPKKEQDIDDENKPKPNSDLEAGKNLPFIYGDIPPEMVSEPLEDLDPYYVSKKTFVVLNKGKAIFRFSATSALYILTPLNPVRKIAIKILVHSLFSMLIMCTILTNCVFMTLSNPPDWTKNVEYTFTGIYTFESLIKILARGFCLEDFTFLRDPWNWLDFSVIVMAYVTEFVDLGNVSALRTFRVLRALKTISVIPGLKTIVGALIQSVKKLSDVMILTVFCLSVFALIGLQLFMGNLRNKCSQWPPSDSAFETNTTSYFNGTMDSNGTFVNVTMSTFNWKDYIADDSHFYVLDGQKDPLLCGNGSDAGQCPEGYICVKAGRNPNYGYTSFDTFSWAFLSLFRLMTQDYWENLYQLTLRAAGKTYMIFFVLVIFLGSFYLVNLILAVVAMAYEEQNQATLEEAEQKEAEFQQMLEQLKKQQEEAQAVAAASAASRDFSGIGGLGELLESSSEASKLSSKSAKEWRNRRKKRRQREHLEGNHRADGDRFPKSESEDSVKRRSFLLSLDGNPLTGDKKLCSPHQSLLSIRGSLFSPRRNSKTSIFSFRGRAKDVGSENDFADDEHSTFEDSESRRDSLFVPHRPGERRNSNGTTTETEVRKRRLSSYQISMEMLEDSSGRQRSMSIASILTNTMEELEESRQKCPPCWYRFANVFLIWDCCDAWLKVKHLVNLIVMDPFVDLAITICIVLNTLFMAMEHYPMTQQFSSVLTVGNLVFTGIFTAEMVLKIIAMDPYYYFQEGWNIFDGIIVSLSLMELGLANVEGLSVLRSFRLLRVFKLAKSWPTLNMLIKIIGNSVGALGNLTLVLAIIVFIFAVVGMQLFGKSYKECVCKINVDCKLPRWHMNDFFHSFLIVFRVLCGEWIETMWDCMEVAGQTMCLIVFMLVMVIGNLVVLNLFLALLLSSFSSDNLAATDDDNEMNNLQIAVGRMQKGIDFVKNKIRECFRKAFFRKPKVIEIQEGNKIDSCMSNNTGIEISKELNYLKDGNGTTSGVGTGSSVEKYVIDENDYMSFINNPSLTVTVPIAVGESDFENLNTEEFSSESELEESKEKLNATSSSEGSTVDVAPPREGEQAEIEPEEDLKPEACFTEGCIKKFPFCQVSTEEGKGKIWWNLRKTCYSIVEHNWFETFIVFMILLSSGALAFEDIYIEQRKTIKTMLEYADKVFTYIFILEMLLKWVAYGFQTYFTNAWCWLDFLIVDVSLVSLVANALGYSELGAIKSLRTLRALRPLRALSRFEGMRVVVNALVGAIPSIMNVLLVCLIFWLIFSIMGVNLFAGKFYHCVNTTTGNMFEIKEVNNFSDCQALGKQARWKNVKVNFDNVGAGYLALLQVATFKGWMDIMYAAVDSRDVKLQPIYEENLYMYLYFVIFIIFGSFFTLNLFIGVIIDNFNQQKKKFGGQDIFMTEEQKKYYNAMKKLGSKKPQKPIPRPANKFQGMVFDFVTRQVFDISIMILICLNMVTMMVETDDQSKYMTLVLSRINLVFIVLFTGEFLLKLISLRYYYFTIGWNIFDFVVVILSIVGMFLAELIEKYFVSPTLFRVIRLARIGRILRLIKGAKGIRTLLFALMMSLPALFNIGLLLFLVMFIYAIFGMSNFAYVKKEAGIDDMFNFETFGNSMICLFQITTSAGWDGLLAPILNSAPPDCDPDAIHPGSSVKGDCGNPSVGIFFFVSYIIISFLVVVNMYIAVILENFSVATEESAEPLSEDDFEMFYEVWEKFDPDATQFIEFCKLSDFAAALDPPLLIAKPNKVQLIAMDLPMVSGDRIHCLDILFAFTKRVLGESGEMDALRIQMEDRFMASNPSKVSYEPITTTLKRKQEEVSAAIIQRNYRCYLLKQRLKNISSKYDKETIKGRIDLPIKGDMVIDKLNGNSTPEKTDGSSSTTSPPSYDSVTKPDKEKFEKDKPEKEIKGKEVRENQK
Chain of rNaV1.3 (Q00954 19-218 partner): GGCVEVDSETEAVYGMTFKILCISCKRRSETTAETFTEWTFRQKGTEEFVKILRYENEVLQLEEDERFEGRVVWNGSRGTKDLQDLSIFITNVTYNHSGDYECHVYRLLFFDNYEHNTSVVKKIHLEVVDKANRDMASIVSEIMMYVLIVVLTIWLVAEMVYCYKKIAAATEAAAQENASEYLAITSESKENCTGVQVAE
Chain of rNaV1.2 (P04775 whole entry): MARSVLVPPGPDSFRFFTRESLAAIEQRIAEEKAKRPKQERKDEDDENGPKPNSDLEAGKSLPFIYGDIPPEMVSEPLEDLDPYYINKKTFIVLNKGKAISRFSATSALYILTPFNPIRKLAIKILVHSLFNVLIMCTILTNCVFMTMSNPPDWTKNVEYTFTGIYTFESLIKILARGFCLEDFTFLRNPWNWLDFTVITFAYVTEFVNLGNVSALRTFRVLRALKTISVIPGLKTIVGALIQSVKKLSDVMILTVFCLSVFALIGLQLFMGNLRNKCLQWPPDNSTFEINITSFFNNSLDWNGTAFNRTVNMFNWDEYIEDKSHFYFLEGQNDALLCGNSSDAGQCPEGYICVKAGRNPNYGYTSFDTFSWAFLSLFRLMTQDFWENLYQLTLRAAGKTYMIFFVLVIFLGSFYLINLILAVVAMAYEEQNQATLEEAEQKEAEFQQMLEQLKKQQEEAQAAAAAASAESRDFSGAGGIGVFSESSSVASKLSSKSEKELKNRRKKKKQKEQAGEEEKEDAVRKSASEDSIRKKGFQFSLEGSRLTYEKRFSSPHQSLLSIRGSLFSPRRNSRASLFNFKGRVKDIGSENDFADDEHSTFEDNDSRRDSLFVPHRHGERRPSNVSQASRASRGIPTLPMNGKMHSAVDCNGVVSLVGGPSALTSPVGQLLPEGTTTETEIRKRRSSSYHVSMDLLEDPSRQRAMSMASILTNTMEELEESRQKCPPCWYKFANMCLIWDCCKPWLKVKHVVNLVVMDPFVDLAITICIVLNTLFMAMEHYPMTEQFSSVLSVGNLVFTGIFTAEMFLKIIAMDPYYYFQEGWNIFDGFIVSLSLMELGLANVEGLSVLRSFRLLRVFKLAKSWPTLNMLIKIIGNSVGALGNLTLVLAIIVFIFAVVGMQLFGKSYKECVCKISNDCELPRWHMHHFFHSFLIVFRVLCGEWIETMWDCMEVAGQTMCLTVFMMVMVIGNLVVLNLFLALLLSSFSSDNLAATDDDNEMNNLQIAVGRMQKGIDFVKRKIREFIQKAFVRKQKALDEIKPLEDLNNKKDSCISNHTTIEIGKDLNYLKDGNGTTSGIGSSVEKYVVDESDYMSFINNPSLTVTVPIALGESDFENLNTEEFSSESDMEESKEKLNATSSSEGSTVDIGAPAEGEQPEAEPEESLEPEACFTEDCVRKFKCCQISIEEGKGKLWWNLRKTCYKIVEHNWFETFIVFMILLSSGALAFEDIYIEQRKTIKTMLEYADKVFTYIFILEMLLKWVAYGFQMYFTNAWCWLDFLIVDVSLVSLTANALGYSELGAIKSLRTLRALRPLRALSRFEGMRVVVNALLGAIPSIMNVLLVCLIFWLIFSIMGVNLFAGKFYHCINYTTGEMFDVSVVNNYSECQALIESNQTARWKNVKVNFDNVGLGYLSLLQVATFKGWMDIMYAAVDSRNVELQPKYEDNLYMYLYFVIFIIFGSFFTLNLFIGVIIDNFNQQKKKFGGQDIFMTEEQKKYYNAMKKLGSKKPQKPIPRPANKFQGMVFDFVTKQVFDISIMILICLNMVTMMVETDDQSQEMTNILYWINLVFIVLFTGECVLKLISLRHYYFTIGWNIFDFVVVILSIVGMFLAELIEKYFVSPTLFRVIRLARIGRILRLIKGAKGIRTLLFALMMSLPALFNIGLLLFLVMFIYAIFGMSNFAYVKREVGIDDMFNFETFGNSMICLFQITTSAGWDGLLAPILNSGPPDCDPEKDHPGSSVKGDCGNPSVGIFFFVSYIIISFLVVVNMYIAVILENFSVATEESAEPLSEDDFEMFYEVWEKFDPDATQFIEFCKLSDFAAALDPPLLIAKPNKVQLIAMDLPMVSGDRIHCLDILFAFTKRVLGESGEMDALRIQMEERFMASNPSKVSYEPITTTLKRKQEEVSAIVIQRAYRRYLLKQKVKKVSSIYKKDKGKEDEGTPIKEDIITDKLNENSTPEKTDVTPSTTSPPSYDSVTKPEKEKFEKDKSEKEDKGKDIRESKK
Chain of rNaV1.2 (Q00954 19-218, further chain): as the sequence (Q00954 19-218 partner) above

| Molecule | IC50 (hNaV1.1) [nM] | IC50 (rNaV1.7) [nM] | IC50 (rNaV1.8) [nM] | inhibition at 100 µM (rNaV1.8) [%] | IC50 (mNaV1.6) [nM] | inhibition at 100 µM (mNaV1.6) [%] | IC50 (hNaV1.5) [nM] | inhibition at 100 µM (hNaV1.5) [%] | IC50 (rNaV1.4) [nM] | inhibition at 100 µM (rNaV1.4) [%] | IC50 (rNaV1.2) [nM] | inhibition at 100 µM (rNaV1.2) [%] | IC50 (rNaV1.3) [nM] | % inhibition, range across NaV1.2, NaV1.4, NaV1.5 and NaV1.6 [1] | IC50 (mNaV1.6; read-out: IC50 NaV1.6 (Table 4), n > 5, ±SD) [nM] | analgesic activity in inflammatory pain models (inflammatory pain models) | Maximum % inhibition NaV1.2 (rNaV1.2; peptide at 100 μM, 100 µM) [%] |
| --- | --- | --- | --- | --- | --- | --- | --- | --- | --- | --- | --- | --- | --- | --- | --- | --- | --- |
| C[C@@H]1NC(=O)[C@H](Cc2c[nH]c3ccccc23)NC(=O)[C@H](CCCNC(=N)N)NC(=O)[C@H](CCCNC(=N)N)NC(=O)[C@@H](N)CSSC[C@@H](C(N)=O)NC(=O)[C@H](CCCNC(=N)N)NC(=O)[C@H](CC(N)=O)NC(=O)[C@H](Cc2c[nH]c3ccccc23)NC(=O)[C@H](CCCNC(=N)N)NC1=O [PnCS1, CRRWARWNRC ^*] (H-CRRWARWNRC-NH2; disulfide 1-10) | 800 ± 300 | 900 ± 200 | > 100000 | 0 | 700 ± 300 | 96 | 2800 ± 500 | 94 | 600 ± 300 | 94 | 1000 ± 300 | 97 | 1100 ± 400 |  |  |  |  |
| C[C@@H]1NC(=O)[C@H](Cc2c[nH]c3ccccc23)NC(=O)[C@H](CCCNC(=N)N)NC(=O)[C@H](CCCNC(=N)N)NC(=O)[C@@H](N)CSSC[C@@H](C(N)=O)NC(=O)[C@H](CCCNC(=N)N)NC(=O)[C@H](CC(N)=O)NC(=O)[C@H](Cc2ccc(O)cc2)NC(=O)[C@H](CCCNC(=N)N)NC1=O [PnCS1[W7Y], CRRWARYNRC ^*] (H-CRRWARYNRC-NH2; disulfide 1-10) | 2200 ± 400 | 8200 ± 300 | > 100000 | 0 | 700 ± 300 | 93 | 11700 ± 4100 | 75 | 7800 ± 3300 | 73 | 7400 ± 4200 | 76 | 4100 ± 800 | 73–93% |  |  |  |
| C[C@@H]1NC(=O)[C@H](Cc2c[nH]c3ccccc23)NC(=O)[C@H](CCCNC(=N)N)NC(=O)[C@H](CCCNC(=N)N)NC(=O)[C@@H](N)CSSC[C@@H](C(N)=O)NC(=O)[C@H](CCCNC(=N)N)NC(=O)[C@H](CC(N)=O)NC(=O)[C@H](Cc2c[nH]c3ccccc23)NC(=O)[C@H](CCC(=O)O)NC1=O [PnCS1[R6E], CRRWAEWNRC ^*] (H-CRRWAEWNRC-NH2; disulfide 1-10) | > 100000 | > 100000 | > 100000 | 0 | > 100000 | 41 | > 100000 | 19 | > 100000 | 0 | > 100000 | 49 | > 100000 |  | > 100000 |  |  |
| μ-Conotoxin KIIIA [μ-KIIIA] |  |  |  |  |  |  |  |  |  |  |  |  |  |  |  | analgesic in inflammatory pain models without motor impairment |  |
| C[C@@H]1NC(=O)[C@H](CCCCN)NC(=O)[C@H](CCCNC(=N)N)NC(=O)[C@H](CCCNC(=N)N)NC(=O)[C@@H](N)CSSC[C@@H](C(N)=O)NC(=O)[C@H](CCCNC(=N)N)NC(=O)[C@H](CC(N)=O)NC(=O)[C@H](Cc2c[nH]c3ccccc23)NC(=O)[C@H](CCCNC(=N)N)NC1=O [PnCS1[W4K], CRRKARWNRC ^*] (H-CRRKARWNRC-NH2; disulfide 1-10) | 400 ± 200 | 7400 ± 500 | > 100000 | 0 | 700 ± 400 | 92 | 2700 ± 500 | 89 | 700 ± 400 | 94 | 500 ± 400 | 75 | 1300 ± 400 |  |  |  |  |
| C[C@@H]1NC(=O)[C@H](Cc2ccc(O)cc2)NC(=O)[C@H](CCCNC(=N)N)NC(=O)[C@H](CCCNC(=N)N)NC(=O)[C@@H](N)CSSC[C@@H](C(N)=O)NC(=O)[C@H](CCCNC(=N)N)NC(=O)[C@H](CC(N)=O)NC(=O)[C@H](Cc2c[nH]c3ccccc23)NC(=O)[C@H](CCCNC(=N)N)NC1=O [PnCS1[W4Y], CRRYARWNRC ^*] (H-CRRYARWNRC-NH2; disulfide 1-10) |  |  | > 100000 | 0 | > 100000 | 42 | > 100000 | 43 | > 100000 | 33 | > 100000 | 39 |  | 33–43% |  |  |  |
| C[C@@H]1NC(=O)[C@H](Cc2c[nH]c3ccccc23)NC(=O)[C@H](CCCNC(=N)N)NC(=O)[C@H](C)NC(=O)[C@H](Cc2c[nH]c3ccccc23)NC(=O)[C@H](CCCNC(=N)N)NC(=O)[C@H](CCCNC(=N)N)NC(=O)[C@@H](N)CSSC[C@@H](C(N)=O)NC(=O)[C@H](CCCNC(=N)N)NC1=O [PnCS1[N8A], CRRWARWARC ^*] (H-CRRWARWARC-NH2; disulfide 1-10) |  |  | > 100000 | 0 | 800 ± 300 | 89 | 2200 ± 700 | 92 | 900 ± 400 | 94 | 900 ± 300 | > 95 |  |  |  |  | 96 |

From article PMC9116130 (Biochemical pharmacology, 2020)
